Reference: ChEMBL document CHEMBL5528050, “Discovery of a Novel Series of Homo sapiens Caseinolytic Protease P Agonists for Colorectal Adenocarcinoma Treatment via ATF3-Dependent Integrated Stress Response” (J Med Chem, 2024)
Active and inactive are the calls of the source. The calls are words filed in the database; no cut-off is given here.

Target: T1, ATP-dependent Clp protease proteolytic subunit (Staphylococcus aureus (strain NCTC 8325)) (UniProt Q2G036)
T1 sequence (whole entry): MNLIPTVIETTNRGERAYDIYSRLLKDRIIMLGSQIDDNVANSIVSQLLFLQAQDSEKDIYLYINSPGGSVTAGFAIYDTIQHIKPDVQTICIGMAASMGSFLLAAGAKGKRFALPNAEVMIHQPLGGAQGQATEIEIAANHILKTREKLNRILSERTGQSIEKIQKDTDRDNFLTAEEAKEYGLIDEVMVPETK
Experiment: Agonist activity at Staphylococcus aureus ClpP using Suc-LY-AMC as substrate at 10 to 100 uM measured every 5 mins for 1 hr by fluorescence based analysis
Conditions: dose 10-100 µM

## N#Cc1cccc(CN2CCC=C(C(=O)NCc3ccc(C(F)(F)F)cc3)C2)c1
  Activity: inactive
